How the values were obtained:
RORγ-LBD = biological target: T1, RORγ-LBD (Homo sapiens, UniProt P51449); assay: RORγ-Ligand Binding Domain (LBD) TR-FRET Assay; assay type: biochemical; details: with 2 μM ursolic acid (RORγ antagonist); highest test concentration 10 μM
T1 construct: made in house; host or cells: SF9 cells (baculovirus); used as diluted lysate
T1 sequence (P51449 269-508 limits assumed): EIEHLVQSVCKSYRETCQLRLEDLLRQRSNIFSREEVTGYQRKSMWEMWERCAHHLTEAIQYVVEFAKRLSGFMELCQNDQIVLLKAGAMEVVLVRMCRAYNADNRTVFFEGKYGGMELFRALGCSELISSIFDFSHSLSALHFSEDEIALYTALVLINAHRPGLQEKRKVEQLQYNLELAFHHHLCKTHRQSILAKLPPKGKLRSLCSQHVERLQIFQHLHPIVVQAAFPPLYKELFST
How it was run: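 SF9 lysate containing His-RORγ-LBD, ~3 nM final; coactivator peptide biotin-SRC1 LXXLL, 200 nM final; ursolic acid 2 μM final; DMSO 1% final; Tris pH 7.0 buffer with KCl, EDTA, DTT, BSA. TR-FRET format.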

Gal4-RORγ-LBD = biological target: T2, Gal4-RORγ-LBD (Homo sapiens, UniProt P51449); assay: Gal4-RORγ Luciferase Reporter Assay in HEK-293T Cells; assay type: cell-based; details: HEK-293 cells, ursolic acid present, luciferase readout
T2 construct: expressed in transfected cells
T2 sequence (P51449 269-508 limits assumed): T1 sequence (P51449 269-508 limits assumed)
How it was run: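 HEK-293 cells were co-transfected with Gal4-RORγ-LBD and a Gal4-luciferase reporter, then exposed overnight at 37 °C to compounds with […] ursolic acid present (0.2% DMSO). Luminescence was read with One-Glo after 10 min at RT, untreated signal was set as 100, and Max Response was taken as the upper plateau of a 4-parameter logistic fit.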

Structure (SMILES) | EC50 (RORγ-LBD) | EC50 (Gal4-RORγ-LBD)
CC/C(=C\c1ccc2c(c1)N(S(=O)(=O)c1cc(C(F)(F)F)cnc1OCCO)C[C@H](CCC(=O)OC)O2)C(C)C [Example 191F, methyl (S,E)-3-(6-(2-ethyl-3-methylbut-1-en-1-yl)-4-((2-(2-hydroxyethoxy)-5-(trifluoro-methyl)pyridin-3-yl)sulfonyl)-3,4-dihydro-2H-benzo[b][1,4]oxazin-2-yl)propanoate] | < 500 nM | 500 to 5000 nM
CC/C(=C\c1ccc2c(c1)N(S(=O)(=O)c1cccc(C(F)(F)F)c1)C[C@H](CCC(=O)O)O2)C(C)C [Example 191G, (S,E)-3-(6-(2-ethyl-3-methylbut-1-en-1-yl)-4-((3-(trifluoromethyl)-phenyl)sulfonyl)-3,4-dihydro-2H-benzo[b][1,4]oxazin-2-yl)propanoic acid] | < 500 nM | < 500 nM
CC/C(=C\c1ccc2c(c1)N(S(=O)(=O)c1cccc(C(F)(F)F)c1)C[C@H](CCC(=O)OC)O2)C(C)C [Example 191H, methyl (S,E)-3-(6-(2-ethyl-3-methylbut-1-en-1-yl)-4-((3-(trifluoromethyl)phenyl)sulfonyl)-3,4-dihydro-2H-benzo[b][1,4]-oxazin-2-yl)propanoate] | < 500 nM | < 500 nM
O=C(O)CC[C@H]1CN(S(=O)(=O)c2cccc(C(F)(F)F)c2)c2cc(C3=CCCC3)ccc2O1 [Example 192, (S)-3-(6-(cyclopent-1-en-1-yl)-4-((3-(trifluoromethyl)phenyl)sulfonyl)-3,4-dihydro-2H-benzo[b][1,4]oxazin-2-yl)propanoic acid] | < 500 nM | 500 to 5000 nM
O=C(O)CC[C@H]1CN(S(=O)(=O)c2cccc(C(F)(F)F)c2)c2cc(C3=CCCCC3)ccc2O1 [Example 193, (S)-3-(6-(cyclohex-1-en-1-yl)-4-((3-(trifluoromethyl)phenyl)sulfonyl)-3,4-dihydro-2H-benzo[b][1,4]oxazin-2-yl)propanoic acid] | < 500 nM | < 500 nM

Second part, the compound after the results:

EC50 (RORγ-LBD) | EC50 (Gal4-RORγ-LBD) | Structure (SMILES)
< 500 nM | < 500 nM | O=C(O)CC[C@H]1CN(S(=O)(=O)c2cccc(C(F)(F)F)c2)c2cc(C3CCCCC3)ccc2O1 [Example 194, (S)-3-(6-cyclohexyl-4-((3-(trifluoromethyl)phenyl)sulfonyl)-3,4-dihydro-2H-benzo[b][1,4]oxazin-2-yl)propanoic acid]
< 500 nM | < 500 nM | O=C(O)CCC[C@H]1CN(S(=O)(=O)c2cc(C(F)(F)F)cnc2OCCO)c2cc(/C=C/c3c(F)cccc3Cl)ccc2O1 [Example 195B, (S,E)-4-(6-(2-chloro-6-fluorostyryl)-4-((2-(2-hydroxyethoxy)-5-(trifluoro-methyl)pyridin-3-yl)sulfonyl)-3,4-dihydro-2H-benzo[b][1,4]-oxazin-2-yl)butanoic acid]
< 500 nM | 500 to 5000 nM | COC(=O)CCC[C@H]1CN(S(=O)(=O)c2cc(C(F)(F)F)cnc2OCCO)c2cc(/C=C/c3c(F)cccc3Cl)ccc2O1 [Example 195C, methyl (S,E)-4-(6-(2-chloro-6-fluorostyryl)-4-((2-(2-hydroxyethoxy)-5-(trifluoro-methyl)pyridin-3-yl)sulfonyl)-3,4-dihydro-2H-benzo[b][1,4]-oxazin-2-yl)butanoate]
< 500 nM | < 500 nM | O=C(O)CCC[C@H]1CN(S(=O)(=O)c2cccc(C(F)(F)F)c2)c2cc(/C=C/c3c(F)cccc3Cl)ccc2O1 [Example 195D, (S,E)-4-(6-(2-chloro-6-fluorostyryl)-4-((3-(trifluoro-methyl)phenyl)sulfonyl)-3,4-dihydro-2H-benzo[b][1,4]oxazin-2-yl)butanoic acid]
< 500 nM | 500 to 5000 nM | COC(=O)CCC[C@H]1CN(S(=O)(=O)c2cccc(C(F)(F)F)c2)c2cc(/C=C/c3c(F)cccc3Cl)ccc2O1 [Example 195E, methyl (S,E)-4-(6-(2-chloro-6-fluorostyryl)-4-((3-(trifluoro-methyl)phenyl)sulfonyl)-3,4-dihydro-2H-benzo[b][1,4]oxazin-2-yl)butanoate]
< 500 nM | < 500 nM | CCC(=Cc1ccc2c(c1)N(S(=O)(=O)c1cccc(C(F)(F)F)c1)C[C@H](CCCC(=O)O)O2)CC [Example 195F, (S)-4-(6-(2-ethylbut-1-en-1-yl)-4-((3-(trifluoromethyl)phenyl)-sulfonyl)-3,4-dihydro-2H-benzo[b][1,4]oxazin-2-yl)butanoic acid]

Reference: patent US9896441B2 (Lycera Corporation, priority 2014, dated 2018)
